The results in this text go back to US10822348B2, “Inhibitors of Bruton's tyrosine kinase and methods of their use” (JANSSEN PHARMACEUTICA NV, priority 2015, dated 2020).

Sequence of unphosphorylated-BTK kinase domain (UP-BTK), GST-tagged human BTK (389-659aa) (Q06187 389-659): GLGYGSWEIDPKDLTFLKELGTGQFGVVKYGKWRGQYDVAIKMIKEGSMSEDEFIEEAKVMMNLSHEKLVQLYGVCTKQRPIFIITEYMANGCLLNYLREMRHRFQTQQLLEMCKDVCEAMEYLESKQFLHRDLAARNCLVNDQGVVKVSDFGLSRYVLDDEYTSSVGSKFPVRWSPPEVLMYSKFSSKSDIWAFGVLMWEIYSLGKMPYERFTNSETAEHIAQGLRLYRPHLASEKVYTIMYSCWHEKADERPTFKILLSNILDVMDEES

The target of one assay is unphosphorylated-BTK kinase domain (UP-BTK), GST-tagged human BTK (389-659aa) (Homo sapiens (Human), UniProt Q06187). The assay is described as follows: BTK kinase Lanthascreen binding assay. The settings on record: negative log of the IC50 in molar; 60 minutes incubation with 50 nM Tracer 236. As for the experimental part:
BTK Kinase Lanthascreen Binding Assay:
A BTK kinase lanthascreen binding assay monitors compound binding to unphosphorylated-BTK kinase domain (UP-BTK), by competing with a fluorescent labeled tracer. […] Data were analyzed using Xlfit™ version 5.3 from ID Business Solutions (Guildford), Microsoft Excel add-in. pIC50 refers to the negative log of the IC50 in molar.
For orientation: In TR-FRET formats the signal depends on donor and acceptor labels being close together.
Turning to `C=CC(=O)N1CCC[C@@H](NC(=O)c2sc3nccc4c3c2NC(=O)N4c2ccc(OC(F)(F)F)cc2C)C1` (single isomer, unassigned) [Example 624, (R)—N-(1-Acryloylpiperidin-3-yl)-5-(*R)-(2-methyl-4-(trifluoromethoxy)phenyl)-4-oxo-4,5-dihydro-3H-1-thia-3,5,8-triazaacenaphthylene-2-carboxamide], the “BTK_I_binding pIC50” value is on record as 5.9. On the same count and under the same terms, then `C=CC(=O)N1CCC[C@@H](NC(=O)c2sc3nccc4c3c2NC(=O)N4c2ccc(Oc3ccccc3)nc2C)C1` (single isomer, unassigned) [Example 661], with 8.3. Take `C=CC(=O)N1CCC[C@@H](NC(=O)c2sc3nccc4c3c2NC(=O)N4c2cnc(CC(C)C)cc2C)C1` (single isomer, unassigned) [Example 669, (R)—N-(1-Acryloylpiperidin-3-yl)-5-(*S)-(6-isobutyl-4-methylpyridin-3-yl)-4-oxo-4,5-dihydro-3H-1-thia-3,5,8-triazaacenaphthylene-2-carboxamide]: the “BTK_I_binding pIC50” value turned out to be 8.1. As for `C=CC(=O)N1CCC[C@@H](NC(=O)c2sc3nccc4c3c2NC(=O)N4c2ccc(OC3CCOCC3)cc2C)C1` (single isomer, unassigned) [Example 675, (R)—N-(1-Acryloylpiperidin-3-yl)-5-(*R)-(2-methyl-4-((tetrahydro-2H-pyran-4-yl)oxy)phenyl)-4-oxo-4,5-dihydro-3H-1-thia-3,5,8-triazaacenaphthylene-2-carboxamide], the “BTK_I_binding pIC50” value stood at 7.2.

For the compound `C=CC(=O)N1CCC[C@@H](NC(=O)c2sc3nccc4c3c2NC(=O)N4c2ccc(Oc3ccccc3)nc2C)C1` (single isomer, unassigned) [Example 690, (R)—N-(1-Acryloylpiperidin-3-yl)-5-(*R)-(2-methyl-6-phenoxypyridin-3-yl)-4-oxo-4,5-dihydro-3H-1-thia-3,5,8-triazaacenaphthylene-2-carboxamide], the “BTK_I_binding pIC50” value is recorded as 7.6. As for `C=CC(=O)N1CCC[C@@H](NC(=O)c2sc3nccc4c3c2NC(=O)N4c2cnc(Oc3ccccc3)cc2C)C1` (single isomer, unassigned) [Example 691, (R)—N-(1-Acryloylpiperidin-3-yl)-5-(*R)-(4-methyl-6-phenoxypyridin-3-yl)-4-oxo-4,5-dihydro-3H-1-thia-3,5,8-triazaacenaphthylene-2-carboxamide], the “BTK_I_binding pIC50” value amounted to 6.0. Consider `C=CC(=O)N1CCC[C@@H](NC(=O)c2sc3nccc4c3c2NC(=O)N4c2cnc(OC3CCC3)cc2C)C1` (single isomer, unassigned) [Example 700, (R)—N-(1-Acryloylpiperidin-3-yl)-5-(*R)-(6-cyclobutoxy-4-methylpyridin-3-yl)-4-oxo-4,5-dihydro-3H-1-thia-3,5,8-triazaacenaphthylene-2-carboxamide], for which the “BTK_I_binding pIC50” value came out at 8.1. With `C=CC(=O)N1CC[C@@H](NC(=O)c2sc3nccc4c3c2NC(=O)N4c2ccc(Oc3ccccc3)nc2C)C1` (single isomer, unassigned) [Example 716, (R)—N-(1-Acryloylpyrrolidin-3-yl)-5-(*S)-(2-methyl-6-phenoxypyridin-3-yl)-4-oxo-4,5-dihydro-3H-1-thia-3,5,8-triazaacenaphthylene-2-carboxamide], the “BTK_I_binding pIC50” value is listed as 8.0. Consider `C=CC(=O)N1CCC[C@@H](NC(=O)c2sc3nccc4c3c2NC(=O)N4c2cnc(CC(C)C)cc2C)C1` (single isomer, unassigned) [Example 722, (R)—N-(1-Acryloylpiperidin-3-yl)-5-(*R)-(6-isobutyl-4-methylpyridin-3-yl)-4-oxo-4,5-dihydro-3H-1-thia-3,5,8-triazaacenaphthylene-2-carboxamide], for which the “BTK_I_binding pIC50” value was 6.4. Consider `C=CC(=O)N1CCC[C@@H](NC(=O)c2sc3nccc4c3c2NC(=O)N4c2ccc(OC3CCOCC3)cc2C)C1` (single isomer, unassigned) [Example 742, (R)—N-(1-Acryloylpiperidin-3-yl)-5-(*S)-(2-methyl-4-((tetrahydro-2H-pyran-4-yl)oxy)phenyl)-4-oxo-4,5-dihydro-3H-1-thia-3,5,8-triazaacenaphthylene-2-carboxamide], for which the “BTK_I_binding pIC50” value was 5.8. With `C=CC(=O)N1CC[C@@H](NC(=O)c2sc3nccc4c3c2NC(=O)N4c2cnc(CC(C)C)cc2C)C1` (single isomer, unassigned) [Example 747, (R)—N-(1-Acryloylpyrrolidin-3-yl)-5-(*S)-(6-isobutyl-4-methylpyridin-3-yl)-4-oxo-4,5-dihydro-3H-1-thia-3,5,8-triazaacenaphthylene-2-carboxamide], the “BTK_I_binding pIC50” value is listed as 7.5. On to `C=CC(=O)N1CC[C@@H](NC(=O)c2sc3nccc4c3c2NC(=O)N4c2cnc(CC(C)C)cc2C)C1` (single isomer, unassigned) [Example 756, (R)—N-(1-Acryloylpyrrolidin-3-yl)-5-(*R)-(6-isobutyl-4-methylpyridin-3-yl)-4-oxo-4,5-dihydro-3H-1-thia-3,5,8-triazaacenaphthylene-2-carboxamide], for which the “BTK_I_binding pIC50” value is less than 6. In the case of `CCC(=O)N1CCC[C@@H](NC(=O)c2sc3nccc4c3c2NC(=O)N4c2cnc(CC(C)C)cc2C)C1` (single isomer, unassigned) [Example 765, (R)-5-(*S)-(6-Isobutyl-4-methylpyridin-3-yl)-4-oxo-N-(1-propionylpiperidin-3-yl)-4,5-dihydro-3H-1-thia-3,5,8-triazaacenaphthylene-2-carboxamide], the “BTK_I_binding pIC50” value stood at 6.5. For the compound `C=CC(=O)N1CCC[C@@H](NC(=O)c2sc3nccc4c3c2NC(=O)N4c2cnc(OCC(C)C)cc2C)C1` (single isomer, unassigned) [Example 766, (R)—N-(1-Acryloylpiperidin-3-yl)-5-(*S)-(6-isobutoxy-4-methylpyridin-3-yl)-4-oxo-4,5-dihydro-3H-1-thia-3,5,8-triazaacenaphthylene-2-carboxamide], the “BTK_I_binding pIC50” value is 8.2. Same read-out and setting: then `C=CC(=O)N1CCC[C@@H](NC(=O)c2sc3nccc4c3c2NC(=O)N4c2cnc(OCC(C)C)cc2C)C1` (single isomer, unassigned) [Example 767, (R)—N-(1-Acryloylpiperidin-3-yl)-5-(*R)-(6-isobutoxy-4-methylpyridin-3-yl)-4-oxo-4,5-dihydro-3H-1-thia-3,5,8-triazaacenaphthylene-2-carboxamide], with less than 6. On to `C=CC(=O)N1CC[C@@H](NC(=O)c2sc3nccc4c3c2NC(=O)N4c2cnc(OC3CCCC3)cc2C)C1` (single isomer, unassigned) [Example 776, (R)—N-(1-Acryloylpyrrolidin-3-yl)-5-(*S)-(6-(cyclopentyloxy)-4-methylpyridin-3-yl)-4-oxo-4,5-dihydro-3H-1-thia-3,5,8-triazaacenaphthylene-2-carboxamide], for which the “BTK_I_binding pIC50” value is listed as 8.1. With `C=CC(=O)N1CC[C@@H](NC(=O)c2sc3nccc4c3c2NC(=O)N4c2cnc(OCC(C)C)cc2C)C1` (single isomer, unassigned) [Example 779, (R)—N-(1-Acryloylpyrrolidin-3-yl)-5-(*S)-(6-isobutoxy-4-methylpyridin-3-yl)-4-oxo-4,5-dihydro-3H-1-thia-3,5,8-triazaacenaphthylene-2-carboxamide], the “BTK_I_binding pIC50” value turned out to be 8.0. For the compound `C=CC(=O)N1CCC[C@@H](NC(=O)c2sc3nccc4c3c2NC(=O)N4c2ccc(CC(C)C)nc2C)C1` (single isomer, unassigned) [Example 792, (R)—N-(1-Acryloylpiperidin-3-yl)-5-(*S)-(6-isobutyl-2-methylpyridin-3-yl)-4-oxo-4,5-dihydro-3H-1-thia-3,5,8-triazaacenaphthylene-2-carboxamide], the “BTK_I_binding pIC50” value is 6.4. As for `C=CC(=O)N1CCC[C@@H](NC(=O)c2sc3nccc4c3c2NC(=O)N4c2ccc(CC(C)C)nc2C)C1` (single isomer, unassigned) [Example 815, (R)—N-(1-Acryloylpiperidin-3-yl)-5-(*R)-(6-isobutyl-2-methylpyridin-3-yl)-4-oxo-4,5-dihydro-3H-1-thia-3,5,8-triazaacenaphthylene-2-carboxamide], the “BTK_I_binding pIC50” value was less than 6. `C=CC(=O)N[C@H]1COC[C@H]1NC(=O)c1sc2nccc3c2c1NC(=O)N3c1cnc(Oc2ccccc2)cc1C` (stereo in doubt) [Example 745, N-((3*S,4*R)-4-Acrylamidotetrahydrofuran-3-yl)-5-(*S)-(4-methyl-6-phenoxypyridin-3-yl)-4-oxo-4,5-dihydro-3H-1-thia-3,5,8-triazaacenaphthylene-2-carboxamide]: the “BTK_I_binding pIC50” value was found to be 8.1.

Staying with this assay, now noted: unphosphorylated-BTK kinase domain, Lanthascreen, 60 minutes incubation; pIC50 = negative log of IC50 in molar.
On to `Cc1cc(OC(C)C)ncc1N1C(=O)Nc2c(C(=O)N[C@@H]3CCNC3)sc3nccc1c23` (single isomer, unassigned) [Example 958, (R)-5-(*S)-(6-Isopropoxy-4-methylpyridin-3-yl)-4-oxo-N-(pyrrolidin-3-yl)-4,5-dihydro-3H-1-thia-3,5,8-triazaacenaphthylene-2-carboxamide], for which the “BTK_I_binding pIC50” value is given as less than 6.

Still in this assay, the particulars now being: unphosphorylated-BTK kinase domain; 60 minutes incubation; pIC50 = negative log of the IC50 in molar.
Turning to `C=CC(=O)N1CC[C@H](NC(=O)c2sc3nccc4c3c2NC(=O)N4c2ccc(Oc3ccccc3)cc2C)C1` (single isomer, unassigned) [Example 518, (S)—N-(1-Acryloylpyrrolidin-3-yl)-5-(*S)-(2-methyl-4-phenoxyphenyl)-4-oxo-4,5-dihydro-3H-1-thia-3,5,8-triazaacenaphthylene-2-carboxamide], the “BTK_I_binding pIC50” value is 7.6. The same measure, in the same setting: as for `Cc1cc(Oc2ccccc2)ccc1N1C(=O)Nc2c(C(=O)N[C@@H]3CCCN(C(=O)/C=C/CNS(C)(=O)=O)C3)sc3nccc1c23` (single isomer, unassigned) [Example 532, (R,E)-5-(*S)-(2-Methyl-4-phenoxyphenyl)-N-(1-(4-(methylsulfonamido)but-2-enoyl)piperidin-3-yl)-4-oxo-4,5-dihydro-3H-1-thia-3,5,8-triazaacenaphthylene-2-carboxamide], the figure is 7.4.
